Test [1] deals with recombinant guinea pig DP receptor. Description: Intracellular calcium assay (FLIPR), guinea pig DP receptor in HEK293-Gα16 cells. It is filed as cell-based, guinea pig (Cavia porcellus). The conditions noted are these: guinea pig DP-expressing HEK293-Gα16 cells, FIG. 6, read-out: EC50, intracellular calcium mobilization.
Description: For functional characterization the newly cloned guinea pig DP receptor was stably transfected into HEK293-Gα16 cells and for comparison an equivalent cell line was generated with the mouse DP receptor. Both DP receptor-expressing cell lines, as well as the parental cell line not expressing any transfected DP receptor, were evaluated in a second messenger assay using the force coupling of the receptor to Gα16 to elicit a calcium response. Intracellular calcium measurements were performed using non-transfected HEK293-Gα16 cells or cells transfected with either the pEAK10-gpDP or the pEAK10-mDP expression vectors. Transfected and non-transfected cells were plated in 384 well plates at 10,000 cells per well. Cells were washed three times with calcium assay buffer. Cells were then incubated with 4 μM of the calcium loading dye Fura-4/AM (Molecular Probes) at 37° C. for x min. Unincorporated fura-4/AM was removed by three further washes with calcium assay buffer. Intracellular calcium was measured following PGD2 or buffer stimulation of Fura-4/AM loaded cells using a FLIPR instrument (Molecular Devices Corp.).
Test [2] addresses T1, mouse DP receptor (Mus musculus, UniProt P70263).
T1 construct: A full length cDNA for the mouse DP receptor was obtained by PCR; expressed in transfected cells
T1 sequence (P70263 1-357): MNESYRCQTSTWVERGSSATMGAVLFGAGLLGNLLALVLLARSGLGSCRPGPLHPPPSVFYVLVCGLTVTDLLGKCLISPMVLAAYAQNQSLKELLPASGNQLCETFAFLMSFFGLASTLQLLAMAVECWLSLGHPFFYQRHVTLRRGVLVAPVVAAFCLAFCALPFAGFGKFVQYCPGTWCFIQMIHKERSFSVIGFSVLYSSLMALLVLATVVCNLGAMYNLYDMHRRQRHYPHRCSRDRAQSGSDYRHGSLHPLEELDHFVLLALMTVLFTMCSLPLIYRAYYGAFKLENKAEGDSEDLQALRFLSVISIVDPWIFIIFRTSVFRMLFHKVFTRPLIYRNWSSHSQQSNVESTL
Description: Intracellular calcium assay (FLIPR), mouse DP receptor in HEK293-Gα16 cells. It is filed as cell-based. The conditions noted are these: mouse DP-expressing HEK293-Gα16 cells, FIG. 6, read-out: EC50, intracellular calcium mobilization. Here is the method: The pEAK10-gpDP and pEAK10-mDP vectors were transfected into the HEK293-Gα16 cell line using Lipofectamine 2000 (Gibco) as described by the manufacturer. Transfected cells were cultured under selection with 1 ug/ml puromycin and 250 ug/ml zeocin for 5 weeks. Expression of the DP receptor was monitored in the transfected cell population by measuring the release of intracellular calcium in response to PGD2 stimulation.
For functional characterization the newly cloned guinea pig DP receptor was stably transfected into HEK293-Gα16 cells and for comparison an equivalent cell line was generated with the mouse DP receptor. Both DP receptor-expressing cell lines, as well as the parental cell line not expressing any transfected DP receptor, were evaluated in a second messenger assay using the force coupling of the receptor to Gα16 to elicit a calcium response. Intracellular calcium measurements were performed using non-transfected HEK293-Gα16 cells or cells transfected with either the pEAK10-gpDP or the pEAK10-mDP expression vectors. Transfected and non-transfected cells were plated in 384 well plates at 10,000 cells per well. Cells were washed three times with calcium assay buffer. […] Intracellular calcium was measured following PGD2 or buffer stimulation of […] loaded cells using a FLIPR instrument (Molecular Devices Corp.).
(In general: Calcium assays in cells follow changes in intracellular calcium, usually with a dye or a luminescent sensor.)

The subject of test [3] is parental HEK293-Gα16 cell line. Description: Intracellular calcium assay (FLIPR), parental cell line without transfected DP receptor. In kind it is cell-based. The conditions noted are these: parental HEK293-Gα16 cells, no transfected DP receptor. An excerpt: The cDNA encoding human Gα16 was cloned as described (Amatruda et al., 1991). Briefly, total RNA from HL-60 human promyelocytic leukemia cells was isolated and used as a template for PCR-mediated synthesis of cDNA encoding Gα16. The resulting PCR product was cloned into the expression vector pHook-3 (Invitrogen), which also coexpresses a single-chain antibody (sFv) to allow convenient enrichment of transfected cells using a panning protocol with hapten-coated magnetobeads (Chesnut et al., 1996). HEK293 cells were transfected with the constructed plasmid (pGα16), selected with Zeocin and positive clones enriched using magnetobeads according to protocols supplied by the vendor. […]
For functional characterization the newly cloned guinea pig DP receptor was stably transfected into HEK293-Gα16 cells and for comparison an equivalent cell line was generated with the mouse DP receptor. Both DP receptor-expressing cell lines, as well as the parental cell line not expressing any transfected DP receptor, were evaluated in a second messenger assay using the force coupling of the receptor to Gα16 to elicit a calcium response. […] Intracellular calcium was measured following PGD2 or buffer stimulation of […] loaded cells using a FLIPR instrument (Molecular Devices Corp.).

Test [4] relates to recombinant guinea pig DP receptor. Description: SPA cAMP assay, guinea pig DP cell line. It is filed as cell-based, guinea pig (Cavia porcellus). The conditions noted are these: 15 minutes stimulation, FIG. 7, read-out: EC50, cAMP accumulation. Here is the method:
(§1) An additional functional characterization of the newly cloned guinea pig DP receptor used the natural signaling pathway for DP, the stimulation of cAMP production by adenylate cyclase. Transfected or non-transfected cells were plated at 40,000 cells per well of a 96 well plate. After overnight incubation at 37° C., medium was replaced and cells were stimulated with defined concentrations of PGD2 for 15 minutes. The accumulation of cAMP was measured in the stimulated cells using the cAMP SPA Direct Screening Assay System (Amersham) according to procedures specified by the manufacturer.
(In general: Changes in cAMP serve as a functional read-out for many G protein-coupled receptors.)

The target in test [5] is T1, mouse DP receptor. Description: SPA cAMP assay, mouse DP cell line. In kind it is cell-based. The conditions noted are these: 15 minutes stimulation, FIG. 7, read-out: EC50, cAMP accumulation.
For test [6], the system named is parental HEK293-Gα16 cell line. Description: SPA cAMP assay, parental cell line. The following applies: parental HEK293-Gα16 cells, 15 minutes stimulation. It is filed as cell-based. Here is the method: as §1

As a reminder, the EC50 is the concentration at which the effect is half-maximal.

In the case of `CCCCC[C@H](O)/C=C/[C@H]1C(=O)C[C@H](O)[C@@H]1C/C=C\CCCC(=O)O` [PGD2, Prostaglandin D2], the EC50 was 1.4 nM in test [1], 18 nM at mouse DP receptor [2], 0.8 nM in test [4] and 0.5 nM at mouse DP receptor [5]. In test [3], the “PGD2 concentration at which a calcium response is seen” value was “above 10 μM”. Also, the “intracellular cAMP response to stimulation” value in test [6] is listed as “did not show an increase in intracellular cAMP”.
